Reference: publication PMC9030166, “Natural Phaeosphaeride A Derivatives Overcome Drug Resistance of Tumor Cells and Modulate Signaling Pathways” (Pharmaceuticals, 2022)

What was measured:
p38 (pThr180/pTyr182) = assay: MILLIPLEX MAP 9-Plex, p38 active form in A431 lysates; format: cell-based, human; conditions: 10 μM
Excerpt: (§1) We used the MILLIPLEX MAP Multi-Pathway Magnetic Bead 9-Plex-Cell Signaling Multiplex Assay, which allows the simultaneous detection of nine phosphorylated proteins that are markers of the main intracellular signaling pathways (phosphorylation site is indicated in parentheses), a universal transcription factor that controls the expression of immune response genes; apoptosis and cell cycle NFκB (pS536); cAMP-dependent transcription factor (CREB (pS133); mitogen-activated kinase p38 (pT180/pY182); stress-activated protein kinase JNK (pT183/pY185); ribosomal […]; transcription factors STAT3 (pS727) and STAT5A/B (pY694/699); protein kinase B (Akt) (pS473); and kinase regulated by extracellular signals ERK1/2 (pT185/pY187).
(§2) The effect of various concentrations of PPA derivatives on the cell culture was studied using xCelligence RTCA equipment (AceaBioscience, San Diego, CA, USA). The concentration closest to the IC50 (10 μM) was chosen as the experimental concentration. The selected concentration of phaeosphaeride A derivatives allows for the assessment of the early effect of compounds on cells and compares their effectiveness. In this experiment, the signaling pathways Akt (pSer473), p70S6K (pThr412), NFkB (p65-pSer536), and CREB (pSer133) were not activated (Table 8). The stress-activated signaling pathways ERK/MAP kinase 1/2 (pThr185/pTyr187), JNK (pThr183/pTyr185), and p38 (pThr180/pTyr182) were activated for these compounds.
(§3) We used a MILLIPLEX MAP Multi-Pathway Magnetic Bead 9-Plex-Cell Signaling Multiplex Assay kit (Merck/Millipore), according to the manufacturer’s protocol. A431 cells were cultured in DMEM with 10% FBS in 24-well plates. Compounds were added to the subconfluent cells at a concentration of 10 μM in DMEM medium for 1 h. Each compound was added in 5 experimental repeats. Cell lysates were prepared with lysis buffer (Millipore) with protease inhibitors (Complete, Roche); the protein concentration in the lysates was determined by the Lowry method. In samples equalized in protein concentration, the active forms of kinase cascades were determined using a Bio-Plex 200 fluorescent analyzer (Bio-Rad).

STAT5 (pTyr694/699) = assay: MILLIPLEX MAP 9-Plex, STAT5 active form in A431 lysates; format: cell-based, human; conditions: A431 cell lysates, 10 μM, 1 h, M ± mx; control 44.2 ± 10.2
Excerpt: as §1, §2, §3

STAT3 (pSer727) = assay: MILLIPLEX MAP 9-Plex, STAT3 active form in A431 lysates; format: cell-based, human; conditions: A431 cell lysates, 10 μM, 1 h, M ± mx; control 70.7 ± 18.3
Excerpt: as §1, §2, §3

p70S6K (pThr389/412) = assay: MILLIPLEX MAP 9-Plex, p70S6K active form in A431 lysates; format: cell-based, human; conditions: A431 cell lysates, 10 μM, 1 h, M ± mx; control 39.9 ± 7.2
Excerpt: as §1, §2, §3

[1] = system: ERK 1/2 (pThr185/pTyr187); assay: MILLIPLEX MAP 9-Plex, ERK 1/2 active form in A431 lysates; format: cell-based, human; conditions: 10 μM
Excerpt: as §1, §2, §3

STAT3/DNA binding = target: STAT3/DNA binding; design: method as in PMID 18668431; conditions: read-out: IC50 value, inhibition of STAT3/DNA binding; cited from earlier work
JNK (pThr183/pTyr185) = assay: MILLIPLEX MAP 9-Plex, JNK active form in A431 lysates; format: cell-based, human; conditions: 10 μM
Excerpt: as §1, §2, §3

CREB (pSer133) = assay: MILLIPLEX MAP 9-Plex, CREB active form in A431 lysates; format: cell-based, human; conditions: A431 cell lysates, 10 μM, 1 h, M ± mx; control 154.5 ± 34.2
Excerpt: as §1, §2, §3

A431 cells = assay: IC50 on A431 cells (xCelligence RTCA cell index); format: cell-based; conditions: Homo sapiens, A-431
Excerpt: A431 cells are characterized by a high inducibility of transcription factors STAT3 and STAT5. In turn, phaeosphaeride A and its derivatives are probably inhibitors of the STAT3 gene. Therefore, the A431 cell line was chosen as a model for searching for possible targets for the action of phaeosphaeride A derivatives. Table 7 presents IC50 data for phaeosphaeride A derivatives on A431 cells.
as §2
To determine the integral cellular response using the xCelligence RTCA equipment (AceaBioscience, Santa Clara, CA, USA), 20 thousand cells were inoculated into a well of a specialized plate allowing the determination of the cell index in real time and cultured in complete growth medium. The next day after the seeding, the medium was replaced with an experimental one (compounds at concentrations of […]). The cell index was monitored for 3 days after the addition of the xenobiotic. The concentration closest to the IC50 (10 μM) was chosen as the experimental concentration.

Akt (pSer473) = assay: MILLIPLEX MAP 9-Plex, Akt active form in A431 lysates; format: cell-based, human; conditions: A431 cell lysates, 10 μM, 1 h, M ± mx; control 76.4 ± 16.9
Excerpt: as §1, §2, §3

In the case of `C=C1C2=C(C(=O)N1OC)[C@H](O)[C@@](C)(O)[C@H](CCCCC)O2` [PPA, phaeosphaeride A], the “p38 (pThr180/pTyr182) fluorescence intensity” value (p38 (pThr180/pTyr182); A431 cell lysates, 1 h, M ± mx, control 567.7 ± 266.6) is reported as 1459.1 ± 117.6 *↑ rel. units, the “activation of signaling pathway p38 (pThr180/pTyr182), in words” value (p38 (pThr180/pTyr182); A431 cells) is reported as “only slightly activated” and the “STAT5 (pTyr694/699) fluorescence intensity” value (STAT5 (pTyr694/699)) is reported as 82.5 ± 3.5 *↑ rel. units. The “STAT3 (pSer727) fluorescence intensity” value (STAT3 (pSer727)) was 128.8 ± 2.4 *↑ rel. units, the “p70S6K (pThr389/412) fluorescence intensity” value (p70S6K (pThr389/412)) was 46.1 ± 2.9 rel. units and the “ERK ½ (pThr185/pTyr187) fluorescence intensity” value ([1]; A431 cell lysates, 1 h, M ± mx, control 839.7 ± 248.9) was 995.4 ± 46.5 rel. units. The “activation of signaling pathway ERK/MAP kinase 1/2 (pThr185/pTyr187), in words” value ([1]; A431 cells) was “only slightly activated”, the IC50 (STAT3/DNA binding) was 610 µM and the “JNK (pThr183/pTyr185) fluorescence intensity” value (JNK (pThr183/pTyr185); A431 cell lysates, 1 h, M ± mx, control 50.9 ± 10.5) was 132.8 ± 9.1 *↑ rel. units. For the same compound, the “activation of signaling pathway JNK (pThr183/pTyr185), in words” value (JNK (pThr183/pTyr185); A431 cells) was “only slightly activated”, the “CREB (pSer133) fluorescence intensity” value (CREB (pSer133)) was 291.0 ± 32.8 *↑ rel. units and the IC50 (A431 cells) was over 50 µM. For the same compound, the “Akt (pSer473) fluorescence intensity” value (Akt (pSer473)) was 123.5 ± 4.9 *↑ rel. units.
